Data taken from patent publication US20020019527A1 (priority 2000, published 2002).
Where a name gives a salt, the structure may show the parent alone. Read-outs that look alike come from different tables or passages of the source.

Biological target: T1, Farnesyltransferase (FTase) (Bos taurus, UniProt P29702+P49355)
T1 construct: precipitation from a beef brain homogenate; from tissue; host or cells: bovine brain
Test: Farnesyltransferase inhibition (scintillation proximity assay, [3H]-FPP / biotin-K-ras peptide)
Type: biochemical, bovine
Method in brief: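 Read-out: [3H]-FPP prenylation of a biotinylated K-ras peptide by SPA, measured 1 h after quenching. Enzyme: FTase purified from bovine brain (ammonium sulfate cut, DEAE Sepharose), free of GGTase I and II. Test compounds in ethanol, diluted 10-fold into the reaction.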

[1] = compound at 10^−6 M, bovine FTase, 37° C., 30 minutes

T1 sequence (P49355 whole entry, one chain of several): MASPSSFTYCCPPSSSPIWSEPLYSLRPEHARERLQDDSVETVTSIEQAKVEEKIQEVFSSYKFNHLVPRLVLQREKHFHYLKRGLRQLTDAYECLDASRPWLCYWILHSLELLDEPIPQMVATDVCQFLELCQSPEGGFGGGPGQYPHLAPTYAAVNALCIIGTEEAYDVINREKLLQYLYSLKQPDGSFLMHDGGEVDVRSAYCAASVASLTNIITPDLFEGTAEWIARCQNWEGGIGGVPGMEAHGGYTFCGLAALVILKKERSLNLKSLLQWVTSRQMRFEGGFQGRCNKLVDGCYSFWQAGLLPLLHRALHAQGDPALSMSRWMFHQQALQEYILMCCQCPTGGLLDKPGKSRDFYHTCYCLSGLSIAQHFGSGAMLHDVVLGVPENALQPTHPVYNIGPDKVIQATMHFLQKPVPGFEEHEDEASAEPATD

SMILES: Cc1ccccc1-c1cc(C(OCc2c(C)c(C)cc(C)c2C)c2cncn2C)ccc1C#N.Cl (stereo not drawn) [Example 179]
- % Inhibition at 10^−6M: 93%

SMILES: Cn1cncc1C(OCc1ccc(S(C)(=O)=O)cc1)c1ccc(C#N)c(-c2cccc3ccccc23)c1 (stereo not drawn) [Example 73, 4-((1-methyl-1H-imidazol-5-yl)((4-(methylsulfonyl)benzyl)oxy)methyl)-2-(1-naphthyl)benzonitrile hydrochloride]
- inhibition at 1 µM [1]: 100%

SMILES: Cc1ccccc1-c1cc(C(OCc2ccc(Cl)cc2)c2cncn2C)ccc1C#N (stereo not drawn) [Example 133, 5-(((4-chlorobenzyl)oxy)(1-methyl-1H-imidazol-5-yl)methyl)-2′-methyl(1,1′-biphenyl)-2-carbonitrile hydrochloride]
- inhibition at 1 µM [1]: 97%

SMILES: Cn1cncc1C(OCc1ccc(C#N)cc1)c1ccc(C#N)c(-c2ccccc2C(=O)O)c1 (stereo not drawn) [Example 205, 2′-cyano-5′-(((4-cyanobenzyl)oxy)(1-methyl-1H-imidazol-5-yl)methyl)(1,1′-biphenyl)-2-carboxylic acid]
- inhibition at 1 µM [1]: 90%

SMILES: Cc1ccccc1-c1cc(C(OCc2ccc(Cl)cc2[N+](=O)[O-])c2cncn2C)ccc1C#N (stereo not drawn) [Example 164, 5-(((4-chloro-2-nitrobenzyl)oxy)(1-methyl-1H-imidazol-5-yl)methyl)-2′-methyl(1,1′-biphenyl)-2-carbonitrile hydrochloride]
- inhibition at 1 µM [1]: 99%

SMILES: Cn1cncc1CN(Cc1ccc(C#N)cc1)c1ccc(C#N)c(-c2cccc3ccccc23)c1 [Example 231, 4-((4-cyanobenzyl)((1-methyl-1H-imidazol-5-yl)methyl)amino)-2-(1-naphthyl)benzonitrile]
- inhibition at 1 µM [1]: 100%

SMILES: Cc1ccccc1-c1cc(C(OCc2ccc(Br)cc2)c2cncn2C)ccc1C#N (stereo not drawn) [Example 119, 5-(((4-bromobenzyl)oxy)(1-methyl-1H-imidazol-5-yl)methyl)-2′-methyl(1,1′-biphenyl)-2-carbonitrile hydrochloride]
- inhibition at 1 µM [1]: 93%

SMILES: Cn1cncc1C(OCc1ccc(Cl)c(Cl)c1)c1ccc(C#N)c(-c2cccc3cccnc23)c1 (stereo not drawn) [Example 240, 4-(((3,4-dichlorobenzyl)oxy)(1-methyl-1H-imidazol-5-yl)methyl)-2-(8-quinolinyl)benzonitrile dihydrochloride]
- inhibition at 1 µM [1]: 95%

SMILES: Cc1ccccc1-c1cc(C(O)c2cccnc2)ccc1C#N (stereo not drawn) [Example 211, 5-(hydroxy(3-pyridinyl)methyl)-2′-methyl(1,1′-biphenyl)-2-carbonitrile]
- inhibition at 1 µM [1]: 30%

SMILES: Cn1cncc1C(OCc1ccccc1)c1ccc(C#N)c(-c2ccc3ccccc3c2)c1 (stereo not drawn) [Example 92, 4-((benzyloxy)(1-methyl-1H-imidazol-5-yl)methyl)-2-(2-naphthyl)benzonitrile hydrochloride]
- inhibition at 1 µM [1]: 53%

SMILES: Cn1cncc1CNc1ccc(C#N)c(-c2cccc3ccccc23)c1 [Example 234, 4-(((1-methyl-1H-imidazol-5-yl)methyl)amino)-2-(1-naphthyl)benzonitrile]
- inhibition at 1 µM [1]: 100%

SMILES: Cl.Cn1cncc1C(OCc1ccc([N+](=O)[O-])cc1)c1ccc(C#N)c(-c2cccc3ccccc23)c1 (stereo not drawn) [Example 59, 4-((1-methyl-1H-imidazol-5-yl)((4-nitrobenzyl)oxy)methyl)-2-(1,1-naphthyl)benzonitrile hydrochloride]
- % Inhibition at 10^−6M [1]: 100%

SMILES: Cn1cncc1CN(Cc1cccc(C#N)c1)c1ccc(C#N)c(-c2cccc3ccccc23)c1 [Example 266, 4-((3-cyanobenzyl)((1-methyl-1H-imidazol-5-yl)methyl)amino)-2-(1-naphthyl)benzonitrile]
- inhibition at 1 µM [1]: 100%

SMILES: Cn1cncc1C(OCc1ccc(F)c(C(F)(F)F)c1)c1ccc(C#N)c(-c2ccccc2C(F)(F)F)c1 (stereo not drawn) [Example 250, 5-(((4-fluoro-3-(trifluoromethyl)benzyl)oxy)(1-methyl-1H-imidazol-5-yl)methyl)-2′-(trifluoromethyl)(1,1′-biphenyl)-2-carbonitrile hydrochloride]
- inhibition at 1 µM [1]: 99%

SMILES: Cl.Cl.Cn1cncc1C(NCc1ccc(S(C)(=O)=O)cc1)c1ccc(C#N)c(-c2cccc3ccccc23)c1 (stereo not drawn) [Example 17]
- % Inhibition at 10^−6M [1]: 100%
